Where a name gives a salt, the structure may show the parent alone. Read-outs that look alike come from different tables or passages of the source.
Key:
[1] = test system: NCI-H292 lung cancer cells; assay: FDA drug screening, complete media vs cholesterol-free media with simvastatin (TABLE 2); format: cell-based, human
[2] = test system: NCI-H292 lung cancer cells; assay: FDA drug screening, complete media vs cholesterol-free media without statin (TABLE 1); format: cell-based, human
[3] = NCI-H292 cells, FDA drug library screen, cholesterol-free media with simvastatin 0.04 μM
[4] = NCI-H292 cells, FDA drug library screen, complete media
[5] = complete media minus cholesterol-free media + simvastatin, >0 enhanced anti-cancer activity, about 0 neutral, <0 antagonist
[6] = Complete minus Cholesterol-free, >0 enhanced anti-cancer activity, about 0 neutral, <0 antagonist
[7] = NCI-H292 cells, cholesterol-free media without statin, FDA drug library screen
[8] = NCI-H292 cells, complete media, FDA drug library screen
[9] = NCI-H292 cells, cholesterol-free media with simvastatin 0.04 μM, cell growth value in FDA drug screen
[10] = NCI-H292 cells, complete media, cell growth value in FDA drug screen
[11] = NCI-H292 cells, FDA drug library screen, cholesterol-free media without statin
[12] = NCI-H292 cells, cholesterol-free media without statin
[13] = complete vs cholesterol-free media, greater than 0 enhanced anti-cancer activity, about 0 neutral, below 0 antagonists
[14] = complete media vs cholesterol-free media + simvastatin (0.04 μM), >0 enhanced anti-cancer activity, about 0 neutral, <0 antagonist
[15] = complete vs cholesterol-free media, >0 enhanced anti-cancer activity, about 0 neutral, <0 antagonist
[16] = NCI-H292 cells, cholesterol-free media with simvastatin 0.04 μM, FDA drug library screen (TABLE 2)
[17] = NCI-H292 cells, complete media, FDA drug library screen (TABLE 2)
[18] = complete media minus cholesterol-free media + simvastatin (0.04 μM), >0 enhanced anti-cancer activity, about 0 neutral, <0 antagonist

| SMILES | Difference [1, 5] | Difference [2, 6] | Cholesterol-free [2, 7] | Complete [2, 8] | Cholesterol-free media + simvastatin (0.04 μM) [1, 9] | Complete Media [1, 10] | Cholesterol-free [2, 12] | Complete ([2]; NCI-H292 cells, complete media) | Difference [2, 13] | Difference [1, 14] | further results |
| --- | --- | --- | --- | --- | --- | --- | --- | --- | --- | --- | --- |
| Cc1cn([C@H]2O[C@@H](CO)[C@H](O)[C@H]2F)c(=O)[nH]c1=O [Clevudine] | 0.17 | −0.06 | 0.975 | 0.9127 |  |  |  |  |  |  | Cholesterol-free media + simvastatin (0.04 μM) [1, 3]: 0.7152; Complete Media [1, 4]: 0.881 |
| C[N+]12CCC(CC1)C(OC(=O)C(O)(c1ccccc1)c1ccccc1)C2.[Br-] (centres unmarked) [Clidinium (bromide)] |  |  |  |  |  |  |  |  |  |  | Cholesterol-free media + simvastatin (0.04 μM) [1]: 1.456; Complete Media [1]: 1.482; Difference [1]: 0.03; Cholesterol-free [2]: 1.17; Complete [2]: 1.604; Difference [2]: 0.43 |
| CCC[C@@H]1C[C@@H](C(=O)N[C@@H]([C@H]2O[C@H](SC)[C@H](O)[C@@H](O)[C@H]2O)[C@H](C)Cl)N(C)C1 [Clindamycin (hydrochloride)] | 0.06 |  |  |  | 1.243 | 1.299 |  |  |  |  | Difference ([2]; Complete minus Cholesterol-free, greater than 0 enhanced anti-cancer activity, about 0 neutral, below 0 antagonist): −0.08; Cholesterol-free [2, 11]: 1.009; Complete [2, 4]: 0.9276 |
| CCC[C@@H]1C[C@@H](C(=O)N[C@@H]([C@H]2O[C@H](SC)[C@H](OP(=O)(O)O)[C@@H](O)[C@H]2O)[C@H](C)Cl)N(C)C1 [Clindamycin (phosphate)] | 0.11 |  |  |  | 1.017 | 1.129 | 1.342 | 0.8969 | −0.44 |  |  |
| CCCCCCCCCCCCCCCC(=O)O[C@@H]1[C@@H](O)[C@@H](O)[C@@H]([C@H](NC(=O)[C@@H]2C[C@@H](CCC)CN2C)[C@H](C)Cl)O[C@@H]1SC.Cl [Clindamycin palmitate (hydrochloride)] |  |  | 0.6777 | 1.478 |  |  |  |  |  | −0.14 | Cholesterol-free media + simvastatin (0.04 μM) [1, 3]: 1.093; Complete Media [1, 4]: 0.9482; Difference [2, 15]: 0.80 |
| CCC(C)(Oc1ccc(C2(c3ccc(OC(C)(CC)C(=O)O)cc3)CCCCC2)cc1)C(=O)O (centres unmarked) [Clinofibrate] |  |  |  |  |  |  | 1.347 | 1.007 | −0.34 | −0.26 | Cholesterol-free media + simvastatin (0.04 μM) ([1]; NCI-H292 cells, drug in cholesterol-free media with simvastatin 0.04 μM): 1.342; Complete Media ([1]; NCI-H292 cells, drug in complete media): 1.081 |
| Oc1c(I)cc(Cl)c2cccnc12 [Clioquinol] |  |  | 0.6089 |  |  |  |  |  |  | −0.16 | Cholesterol-free media + simvastatin (0.04 μM) [1, 3]: 1.168; Complete Media [1, 4]: 1.009; Difference [2, 15]: 0.57 |
| CCC(=O)O[C@]1(C(=O)CCl)[C@@H](C)C[C@H]2[C@@H]3CCC4=CC(=O)C=C[C@]4(C)[C@@]3(F)[C@@H](O)C[C@@]21C [Clobetasol propionate] | 0.02 | −0.20 |  |  | 0.7256 | 0.7474 | 1.481 | 1.28 |  |  |  |
| CCCC(=O)O[C@]1(C(=O)CCl)[C@H](C)C[C@@H]2[C@@H]3CCC4=CC(=O)C=C[C@]4(C)[C@]3(F)C(=O)C[C@@]21C [Clobetasone butyrate] |  |  |  |  |  |  |  |  |  |  | Cholesterol-free media + simvastatin (0.04 μM) ([1]; NCI-H292 cells, cholesterol-free media with simvastatin 0.04 μM, […]): 0.5437; Complete Media ([1]; NCI-H292 cells, complete media, […]): 0.5699; Difference ([1]; complete media minus cholesterol-free media + simvastatin, […]): 0.03; Difference ([2]; Complete minus Cholesterol-free, […]): −0.18; Cholesterol-free [2, 11]: 0.6832; Complete [2, 4]: 0.5004 |
| O.O.O.O.O=P([O-])(O)C(Cl)(Cl)P(=O)([O-])O.[Na+].[Na+] [Clodronate (disodium tetrahydrate)] | 0.09 | −0.05 | 1.08 | 1.034 | 0.8439 | 0.9326 |  |  |  |  |  |
| O=P(O)(O)C(Cl)(Cl)P(=O)(O)O [Clodronic acid (disodium salt)] |  | 0.00 | 0.9505 | 0.955 |  |  |  |  |  | −0.81 | Cholesterol-free media + simvastatin (0.04 μM) ([1]; NCI-H292 cells, FDA library drug in cholesterol-free media with simvastatin 0.04 μM): 1.883; Complete Media ([1]; NCI-H292 cells, FDA library drug in complete media): 1.075 |
| Nc1nc(Cl)nc2c1ncn2[C@@H]1O[C@H](CO)[C@@H](O)[C@@H]1F [Clofarabine] |  |  |  |  |  |  | 0.802 | 0.4474 | −0.35 |  | Cholesterol-free media + simvastatin (0.04 μM) [1, 16]: 0.03305; Complete Media [1, 17]: 0.03609; Difference [1, 18]: 0.00 |
| CC(C)/N=c1\cc2n(-c3ccc(Cl)cc3)c3ccccc3nc-2cc1Nc1ccc(Cl)cc1 [Clofazimine] |  |  |  |  |  |  | 0.8398 | 0.4066 | −0.43 |  | Cholesterol-free media + simvastatin (0.04 μM) [1, 16]: 0.9946; Complete Media [1, 17]: 0.9365; Difference [1, 18]: −0.06 |
